Numbers after ± are expanded uncertainties.
Legend:
[1] = 298.15 K; 101.33 kPa; Liquid; Vibrating tube method
[2] = refractive index (Na D-line) (dimensionless); conditions: 298.15 K; 101.33 kPa; Liquid; Standard Abbe refractometry

Compound | mass density [1] [kg/m3] | refractive index [2]
Cc1ccccc1C [1,2-dimethylbenzene] | 859.54 ± 0.14 | 1.4945 ± 0.0008
Cc1cccc(C)c1 [1,3-dimethylbenzene] | 859.95 ± 0.14 | 1.4946 ± 0.0008
Cc1ccc(C)cc1 [1,4-dimethylbenzene] | 856.71 ± 0.14 | 1.4957 ± 0.0008
CCCCCCCCCC [decane] | 726.36 ± 0.17 | 1.4108 ± 0.0008
